Measurements reported in patent US10105437B2, “Epitopes related to coeliac disease” (BTG International Limited, priority 2004, dated 2018).

Tested on: PBMC from HLA-DQ2+ coeliac subjects
Experiment: Interferon gamma ELISPOT, second round wheat gliadin and glutenin 16mer library
Assay type: cell-based, human
Details: 16mers pre-treated with transglutaminase; 18 or 28 subjects
Description: 12mer peptides were then identified in which each potential deamidation site could be in position 4, 6 or 7 in the 9mer located within HLA-DQ2 binding groove (HLA-DQ2 anchors at these positions show a preference for glutamate). Candidate 12mer core epitope sequences were then flanked with glycine followed by the N-terminal residue present in the parent gliadin polypeptide and at the C-terminal by the C-terminal residue present in the parent gliadin polypeptide followed by glycine (i.e. GXXXXXXXQXXXXXXG (SEQ ID NO: 1936)). […]
IFNγ ELISpot assays (Mabtech, Sweden) were performed in 96-well plates (MAIP S-45, Millipore) in which each well contained 25 mcl of peptide solution and 100 mcl of PBMC (2-8×10^5/well) in RPMI containing 10% heat inactivated human AB serum. After development and drying, IFNγ ELISpot plates were assessed using the MAIP automated ELISpot plate counter. Data was then analysed according to a novel algorithm (Expectation Maximization: EM) to define and quantify interferon-gamma responses to 9mer sequences contained within the peptide library (see FIG. 3 and below). 9mer peptides were then rationalised according to an algorithm that assumes redundancy in T-cell recognition, the “IterativeCluster” algorithm (see FIG. 4 and below), by allowing groups of amino acids with similar chemical properties at any one position in the 9mer, or for glutamate to replace glutamine at any position (assuming deamidation may have occurred).
All 2nd round 16mer peptides were assessed in at least 18 subjects. […] All 16mers identified for the second round Oxford library also fulfilled the selection criteria for the Melbourne second round library.
The second round peptide library data was analysed according to the “dominance” of peptide responses in the interferon gamma ELISPOT in individual subjects i.e. the percent response of an individual's PBMC to a specific peptide normalized against that individual's maximal peptide-induced response. Sequences of peptides that stimulated at least 40% of the maximal peptide-specific response in at least one subject are shown in Table 1 below. The dataset supports the consistency and “dominance” of peptides conforming to the sequences identified using the first round 20mer peptide library using the Expectation Maximization (EM) algorithm described above.

Substance	subjects with 10-40% of maximal peptide-specific response	subjects with 40-70% of maximal peptide-specific response	subjects with <10% of maximal peptide-specific response
DAIRAIIYSIVLQEQQ [wheat 16mer, second round library]	Nil	Nil	17/18
G-FFPQPQQQFPQPQQ-G: wheat 16mer, second round library (GFPQQPQQQFPQPQQG; Description of Artificial Sequence: Synthetic gluten peptide)	10/28	1/28	17/28
G-FPQLQQPQQPFPQQ-G: wheat 16mer, second round library (GFPQTQQPQQPFPQQG; Description of Artificial Sequence: Synthetic gluten peptide)	1/28	Nil	26/28
G-FPQPQQPQQPFPQQ-G: wheat 16mer, second round library (GFPQPQQPQQSFPQQG; Description of Artificial Sequence: Synthetic gluten peptide)	3/28	1/28	25/28
G-FPQQPQQQFPQPQQ-G: wheat 16mer, second round library (GQQPFPQPQQQFPQPG; Description of Artificial Sequence: Synthetic gluten peptide)	Nil	1/28	27/28
G-IQVDPSGQVQWPQQ-G: wheat 16mer, second round library (GMQADPSGQVQWPQQG; Description of Artificial Sequence: Synthetic gluten peptide)	Nil	Nil	17/18
G-LQPFPQPQLPFPQP-G: wheat 16mer, second round library (GLQPFPQPQLPFPQPG; Description of Artificial Sequence: Synthetic gluten peptide)	5/28	8/28	10/28
G-LQPFPQPQLPYLQP-G: wheat 16mer, second round library (GLQPFPQPQLPYLQPG; Description of Artificial Sequence: Synthetic gluten peptide)	12/28	1/28	14/28
G-LQPFPQPQLPYPQP-G: wheat 16mer, second round library (GLQPFPQPQLPYPQPG; Description of Artificial Sequence: Synthetic gluten peptide)	Nil	8/28	6/28
G-LQPFPQPQLPYSQP-G: wheat 16mer, second round library (GLQPFPQPQLPYSQPG; Description of Artificial Sequence: Synthetic gluten peptide)	12/28	3/28	11/28
G-LQPFPQPQLSYSQP-G: wheat 16mer, second round library (GLQPFPQPQLSYSQPG; Description of Artificial Sequence: Synthetic gluten peptide)	2/28	1/28	25/28
G-MQVDPSGQVQWPQQ-G: wheat 16mer, second round library (GIQVDPSGQVQWPQQG; Description of Artificial Sequence: Synthetic gluten peptide)	Nil	Nil	17/18
G-QLPYPQPQLPYPQP-G: wheat 16mer, second round library (GQLPYPQPQLPYPQPG; Description of Artificial Sequence: Synthetic gluten peptide)	3/28	4/28	3/28
G-QPFPLQPQQPFPQQ-G: wheat 16mer, second round library (GQPFPWQPQQPFPQQG; Description of Artificial Sequence: Synthetic gluten peptide)	7/28	2/28	19/28
G-QPFPWQPQQPFPQQ-G: wheat 16mer, second round library (GQPTPIQPQQPFPQQG; Description of Artificial Sequence: Synthetic gluten peptide)	8/28	2/28	18/28
G-QQPFPQPQQPFPWQ-G: wheat 16mer, second round library	5/28	8/28	6/28
G-QQPFPQPQQPFSQQ-G: wheat 16mer, second round library	8/28	7/28	9/28
G-QQPFPQPQQPIPVQ-G: wheat 16mer, second round library	7/28	5/28	8/28
G-QQPQFSQQQQIPVI-G: wheat 16mer, second round library (PFPQPQQPFPW; Description of Artificial Sequence: Synthetic gluten peptide)	Nil	1/28	17/18
G-QQPQQQPQQPFPQQ-G: wheat 16mer, second round library	5/28	1/28	22/28
G-QQQFSQPQQQFPQP-G: wheat 16mer, second round library	7/28	5/28	16/28
G-QVSFQQPQQQYPSP-G: wheat 16mer, second round library	4/28	2/28	22/28
GQGQSGYYPTSPQQSG (QQGYYPTSPQQSGQGQ; Description of Artificial Sequence: Synthetic gluten peptide) [wheat 16mer, second round library]	2/18	Nil	15/18
GQVVNNHGQTVFNDIG [wheat 16mer, second round library]	4/18	1/18	–
IIMQQEQQEQRQGVQI [wheat 16mer, second round library]	8/28	Nil	19/28

Same assay, conditions: 16mers pre-treated with transglutaminase; normalized to individual's maximal response; 18 or 28 subjects

Substance	subjects with >70% of maximal peptide-specific response
DAIRAIIYSIVLQEQQ [wheat 16mer, second round library]	Nil
G-FFPQPQQQFPQPQQ-G: wheat 16mer, second round library (GFPQQPQQQFPQPQQG; Description of Artificial Sequence: Synthetic gluten peptide)	Nil
G-FPQLQQPQQPFPQQ-G: wheat 16mer, second round library (GFPQTQQPQQPFPQQG; Description of Artificial Sequence: Synthetic gluten peptide)	1/28
G-FPQPQQPQQPFPQQ-G: wheat 16mer, second round library (GFPQPQQPQQSFPQQG; Description of Artificial Sequence: Synthetic gluten peptide)	Nil
G-FPQQPQQQFPQPQQ-G: wheat 16mer, second round library (GQQPFPQPQQQFPQPG; Description of Artificial Sequence: Synthetic gluten peptide)	Nil
G-IQVDPSGQVQWPQQ-G: wheat 16mer, second round library (GMQADPSGQVQWPQQG; Description of Artificial Sequence: Synthetic gluten peptide)	1/18
G-LQPFPQPQLPFPQP-G: wheat 16mer, second round library (GLQPFPQPQLPFPQPG; Description of Artificial Sequence: Synthetic gluten peptide)	4/28
G-LQPFPQPQLPYLQP-G: wheat 16mer, second round library (GLQPFPQPQLPYLQPG; Description of Artificial Sequence: Synthetic gluten peptide)	1/28
G-LQPFPQPQLPYPQP-G: wheat 16mer, second round library (GLQPFPQPQLPYPQPG; Description of Artificial Sequence: Synthetic gluten peptide)	14/28
G-LQPFPQPQLPYSQP-G: wheat 16mer, second round library (GLQPFPQPQLPYSQPG; Description of Artificial Sequence: Synthetic gluten peptide)	2/28
G-LQPFPQPQLSYSQP-G: wheat 16mer, second round library (GLQPFPQPQLSYSQPG; Description of Artificial Sequence: Synthetic gluten peptide)	Nil
G-MQVDPSGQVQWPQQ-G: wheat 16mer, second round library (GIQVDPSGQVQWPQQG; Description of Artificial Sequence: Synthetic gluten peptide)	1/18
G-QLPYPQPQLPYPQP-G: wheat 16mer, second round library (GQLPYPQPQLPYPQPG; Description of Artificial Sequence: Synthetic gluten peptide)	18/28
G-QPFPLQPQQPFPQQ-G: wheat 16mer, second round library (GQPFPWQPQQPFPQQG; Description of Artificial Sequence: Synthetic gluten peptide)	Nil
G-QPFPWQPQQPFPQQ-G: wheat 16mer, second round library (GQPTPIQPQQPFPQQG; Description of Artificial Sequence: Synthetic gluten peptide)	Nil
G-QQPFPQPQQPFPWQ-G: wheat 16mer, second round library	9/28
G-QQPFPQPQQPFSQQ-G: wheat 16mer, second round library	4/28
G-QQPFPQPQQPIPVQ-G: wheat 16mer, second round library	8/28
G-QQPQFSQQQQIPVI-G: wheat 16mer, second round library (PFPQPQQPFPW; Description of Artificial Sequence: Synthetic gluten peptide)	Nil
G-QQPQQQPQQPFPQQ-G: wheat 16mer, second round library	Nil
G-QQQFSQPQQQFPQP-G: wheat 16mer, second round library	Nil
G-QVSFQQPQQQYPSP-G: wheat 16mer, second round library	Nil
GQGQSGYYPTSPQQSG (QQGYYPTSPQQSGQGQ; Description of Artificial Sequence: Synthetic gluten peptide) [wheat 16mer, second round library]	1/18
GQVVNNHGQTVFNDIG [wheat 16mer, second round library]	Nil
IIMQQEQQEQRQGVQI [wheat 16mer, second round library]	1/28
